Measured values reported in ChEMBL document CHEMBL4052768, “Discovery of novel 2-(3-phenylpiperazin-1-yl)-pyrimidin-4-ones as glycogen synthase kinase-3β inhibitors” (Bioorg Med Chem Lett, 2017).
pIC50: −log10 of the molar value.

Legend:
[1] = biological target: Glycogen synthase kinase-3 beta (Homo sapiens, UniProt P49841); test: Inhibition of recombinant human GSK-3beta using prephosphorylated GS-1 peptide as substrate after 1 hr in presence of [gamma-32P]ATP by liquid scintillation spectrometric method
Glycogen synthase kinase-3 beta, sequence (P49841 whole entry): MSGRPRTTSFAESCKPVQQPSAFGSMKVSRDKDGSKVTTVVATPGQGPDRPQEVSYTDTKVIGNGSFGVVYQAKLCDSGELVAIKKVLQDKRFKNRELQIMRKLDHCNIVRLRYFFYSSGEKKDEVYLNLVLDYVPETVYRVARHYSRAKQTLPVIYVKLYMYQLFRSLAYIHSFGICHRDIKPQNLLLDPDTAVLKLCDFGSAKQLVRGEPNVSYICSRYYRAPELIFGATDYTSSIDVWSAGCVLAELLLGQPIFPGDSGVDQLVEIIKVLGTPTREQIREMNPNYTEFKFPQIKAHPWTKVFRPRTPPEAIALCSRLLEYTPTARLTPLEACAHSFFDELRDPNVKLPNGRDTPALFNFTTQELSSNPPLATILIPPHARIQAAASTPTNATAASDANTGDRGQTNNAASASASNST

[2] = biological target: T1, Cytochrome P450 1A2 (Homo sapiens, UniProt P05177); test: Inhibition of CYP1A2 in human liver microsomes; assay type: ADME
T1 sequence (P05177 whole entry): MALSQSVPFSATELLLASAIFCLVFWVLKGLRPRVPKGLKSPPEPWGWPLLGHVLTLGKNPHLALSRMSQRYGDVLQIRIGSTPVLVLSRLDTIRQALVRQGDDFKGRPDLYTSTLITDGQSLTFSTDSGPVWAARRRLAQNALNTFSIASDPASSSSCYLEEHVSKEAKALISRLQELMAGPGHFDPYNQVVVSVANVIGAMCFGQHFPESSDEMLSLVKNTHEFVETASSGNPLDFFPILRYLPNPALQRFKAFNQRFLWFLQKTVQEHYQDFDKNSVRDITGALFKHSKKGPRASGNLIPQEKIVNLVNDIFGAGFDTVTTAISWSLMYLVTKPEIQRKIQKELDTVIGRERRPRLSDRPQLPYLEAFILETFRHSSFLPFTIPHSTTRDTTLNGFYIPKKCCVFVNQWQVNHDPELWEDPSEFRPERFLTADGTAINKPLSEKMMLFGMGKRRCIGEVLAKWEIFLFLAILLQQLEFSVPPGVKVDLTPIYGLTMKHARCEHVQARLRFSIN

[3] = biological target: T2, Cytochrome P450 2D6 (Homo sapiens, UniProt P10635); test: Inhibition of recombinant human CYP2D6; assay type: ADME
T2 sequence (P10635 whole entry): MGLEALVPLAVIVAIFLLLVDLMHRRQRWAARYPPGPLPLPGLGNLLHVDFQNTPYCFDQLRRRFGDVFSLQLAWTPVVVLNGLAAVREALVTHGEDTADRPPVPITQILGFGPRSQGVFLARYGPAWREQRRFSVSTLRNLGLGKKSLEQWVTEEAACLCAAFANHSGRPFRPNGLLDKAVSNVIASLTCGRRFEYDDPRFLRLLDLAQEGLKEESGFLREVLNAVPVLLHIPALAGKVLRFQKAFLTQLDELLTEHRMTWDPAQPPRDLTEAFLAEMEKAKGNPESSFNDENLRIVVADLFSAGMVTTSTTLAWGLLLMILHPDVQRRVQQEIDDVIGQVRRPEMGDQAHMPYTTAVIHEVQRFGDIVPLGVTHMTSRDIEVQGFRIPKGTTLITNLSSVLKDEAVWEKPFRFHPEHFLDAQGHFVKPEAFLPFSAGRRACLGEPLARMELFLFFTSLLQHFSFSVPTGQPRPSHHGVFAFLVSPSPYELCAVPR

[4] = biological target: T3, Cytochrome P450 3A4 (Homo sapiens, UniProt P08684); test: Inhibition of recombinant human CYP3A4; assay type: ADME
T3 sequence (P08684 whole entry): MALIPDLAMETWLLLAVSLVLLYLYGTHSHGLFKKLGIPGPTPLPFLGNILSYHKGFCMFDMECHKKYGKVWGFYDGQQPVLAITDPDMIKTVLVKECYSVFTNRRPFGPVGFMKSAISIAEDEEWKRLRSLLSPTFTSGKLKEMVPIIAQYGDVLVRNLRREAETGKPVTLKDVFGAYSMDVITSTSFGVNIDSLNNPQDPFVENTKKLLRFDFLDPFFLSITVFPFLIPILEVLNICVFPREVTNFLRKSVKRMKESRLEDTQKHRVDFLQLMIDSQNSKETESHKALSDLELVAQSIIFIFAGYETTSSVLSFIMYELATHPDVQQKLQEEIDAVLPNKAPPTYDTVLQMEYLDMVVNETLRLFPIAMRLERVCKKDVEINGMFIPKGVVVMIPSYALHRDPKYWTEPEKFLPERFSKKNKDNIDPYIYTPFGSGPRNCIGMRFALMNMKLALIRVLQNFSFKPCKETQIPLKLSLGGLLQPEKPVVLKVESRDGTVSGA

[5] = biological target: T2, Cytochrome P450 2D6; test: Inhibition of CYP2D6 in human liver microsomes; assay type: ADME
[6] = biological target: T3, Cytochrome P450 3A4; test: Inhibition of CYP3A4 in human liver microsomes; assay type: ADME
[7] = biological target: T1, Cytochrome P450 1A2; test: Inhibition of recombinant human CYP1A2; assay type: ADME

Question: With Cn1c(N2CCNC(c3ccccc3)C2)nc(-c2ccncc2)cc1=O (racemic) as the molecule, how does the pIC50 [1] read?
Answer: 7.74

Question: What does the source list for COc1cc(F)ccc1C1CN(c2nc(-c3ccncn3)cc(=O)n2C)CCN1 (racemic)?
Answer: pIC50 [2]: < 4.28; pIC50 [3]: 5.57; pIC50 [1]: 9.14

Question: With Cn1c(N2CCNC(c3ccccc3Cl)C2)nc(-c2ccncn2)cc1=O (racemic) as the molecule, how does the pIC50 [1] read?
Answer: 8.59

Question: How did the pIC50 [1] turn out when Cn1c(N2CCNC(c3ccc(Cl)cc3)C2)nc(-c2ccncn2)cc1=O (racemic) was run?
Answer: 8.77

Question: Cn1c(N2CCNC(c3ccc(Br)cc3)C2)nc(-c2ccncc2)cc1=O (racemic) was tested. Which pIC50 [1] did it give?
Answer: 7.66

Question: COc1cc(F)ccc1C1CN(c2nc(-c3ccncn3)cc(=O)n2C)CCN1C(C)=O (stereo unspecified) was tested. Which pIC50 [1] did it give?
Answer: 5.82

Question: With Cn1c(N2CCNC(c3ccc(Cl)cc3)C2)nc(-c2ccncc2)cc1=O (racemic) as the molecule, how does the pIC50 [1] read?
Answer: 8.18

Question: What does the source list for COc1cc(F)ccc1C1CN(c2nc(-c3ccncc3)cc(=O)n2C)CCN1 (single isomer, unassigned; enantiomer 2)?
Answer: pIC50 [4]: < 4.30; pIC50 [2]: < 4.28; pIC50 [3]: 5.22; pIC50 [1]: 9.40

Question: How did the pIC50 [1] turn out when COc1ccc(C2CN(c3nc(-c4ccncc4)cc(=O)n3C)CCN2)cc1OC (stereo unspecified) was run?
Answer: 8.28

Question: With Cn1c(N2CCNC(c3cccc(F)c3)C2)nc(-c2ccncn2)cc1=O (racemic) as the molecule, how does the pIC50 [1] read?
Answer: 7.92

Question: COc1cc(F)ccc1C1CN(c2nc(-c3ccncc3)cc(=O)n2C)CCN1C (stereo unspecified) was tested. Which pIC50 [1] did it give?
Answer: 7.25

Question: CCOc1ccccc1C1CN(c2nc(-c3ccncc3)cc(=O)n2C)CCN1 (stereo unspecified) was tested. Which pIC50 [1] did it give?
Answer: 7.60

Question: Cn1c(N2CCNC(c3cccc(Cl)c3)C2)nc(-c2ccncn2)cc1=O (racemic) was tested. Which pIC50 [1] did it give?
Answer: 8.96

Question: How did the pIC50 [1] turn out when Cn1c(N2CCNC(c3cccc(F)c3)C2)nc(-c2ccncc2)cc1=O (racemic) was run?
Answer: 7.66

Question: COc1cc(F)ccc1C1CN(c2nc(-c3ccncn3)cc(=O)n2C)CCN1C (stereo unspecified) was tested. Which pIC50 [1] did it give?
Answer: 7.59

Question: COc1cc(F)ccc1C1CN(c2nc(-c3ccncc3)cc(=O)n2C)CCN1 (racemic) was tested. Which pIC50 [4] did it give?
Answer: < 4.28

Question: And the pIC50 [2]?
Answer: < 4.28

Question: What about the pIC50 [3] of the same molecule?
Answer: 5.74

Question: What about the pIC50 [1] of the same molecule?
Answer: 9.05

Question: How did the pIC50 [1] turn out when Cn1c(N2CCNC(c3ccccc3Br)C2)nc(-c2ccncn2)cc1=O (racemic) was run?
Answer: 8.37

Question: With Cc1cc(F)ccc1C1CN(c2nc(-c3ccncc3)cc(=O)n2C)CCN1 (stereo unspecified) as the molecule, how does the pIC50 [1] read?
Answer: 7.62

Question: COc1cc(F)cc(F)c1C1CN(c2nc(-c3ccncc3)cc(=O)n2C)CCN1 (stereo unspecified) was tested. Which pIC50 [1] did it give?
Answer: 8.70

Question: Which results are given for COc1cc(F)ccc1C1CN(c2nc(-c3ccncc3)cc(=O)n2C)CCN1 (single isomer, unassigned; enantiomer 1)?
Answer: pIC50 [4]: < 4.30; pIC50 [2]: < 4.28; pIC50 [3]: 6.00; pIC50 [1]: 7.27

Question: Cn1c(N2CCNC(c3ccc(Cl)c(Cl)c3)C2)nc(-c2ccncn2)cc1=O (stereo unspecified) was tested. Which pIC50 [1] did it give?
Answer: 8.64

Question: How did the pIC50 [1] turn out when COc1cc(F)ccc1C1CN(c2nc(-c3ccncn3)cc(=O)n2C)CCN1Cc1ccccc1 (stereo unspecified) was run?
Answer: 6.66

Question: With COc1ccc(C2CN(c3nc(-c4ccncn4)cc(=O)n3C)CCN2)cc1 (racemic) as the molecule, how does the pIC50 [1] read?
Answer: 8.46

Question: COc1cccc(C2CN(c3nc(-c4ccncn4)cc(=O)n3C)CCN2)c1 (racemic) was tested. Which pIC50 [1] did it give?
Answer: 8.17

Question: Cn1c(N2CCNC(c3ccc(C#N)cc3)C2)nc(-c2ccncc2)cc1=O (racemic) was tested. Which pIC50 [1] did it give?
Answer: 7.82

Question: COc1cc(F)ccc1C1CN(c2nc(-c3ccncc3)cc(=O)n2C)CCN1Cc1ccccc1 (stereo unspecified) was tested. Which pIC50 [1] did it give?
Answer: 5.92

Question: How did the pIC50 [1] turn out when Cn1c(N2CCN[C@H](c3ccc(Cl)cc3)C2)nc(-c2ccncn2)cc1=O was run?
Answer: 7.59

Question: How did the pIC50 [1] turn out when Cn1c(N2CCNC(c3ccc(Br)cc3)C2)nc(-c2ccncn2)cc1=O (racemic) was run?
Answer: 8.09

Question: Cn1c(N2CCN[C@@H](c3ccc(Cl)cc3)C2)nc(-c2ccncn2)cc1=O was tested. Which pIC50 [1] did it give?
Answer: 8.92

Question: With COc1cc(F)ccc1C1CN(c2nc(-c3ccncc3)cc(=O)n2C)CCN1C(C)=O (stereo unspecified) as the molecule, how does the pIC50 [1] read?
Answer: 5.77

Question: Cn1c(N2CCNC(c3ccccc3F)C2)nc(-c2ccncn2)cc1=O (stereo unspecified) was tested. Which pIC50 [1] did it give?
Answer: 8.09

Question: How did the pIC50 [1] turn out when COc1cc(F)cc(F)c1C1CN(c2nc(-c3ccncn3)cc(=O)n2C)CCN1 (stereo unspecified) was run?
Answer: 8.77

Question: How did the pIC50 [1] turn out when Cn1c(N2CCNC(c3ccc(C#N)cc3)C2)nc(-c2ccncn2)cc1=O (racemic) was run?
Answer: 8.13

Question: Cn1c(N2CCNC(c3ccc(F)cc3)C2)nc(-c2ccncc2)cc1=O (racemic) was tested. Which pIC50 [1] did it give?
Answer: 7.74

Question: How did the pIC50 [1] turn out when Cn1c(N2CCNC(c3ccccc3Cl)C2)nc(-c2ccncc2)cc1=O (racemic) was run?
Answer: 8.02

Question: How did the pIC50 [1] turn out when Cn1c(N2CCNC(c3ccccc3Br)C2)nc(-c2ccncc2)cc1=O (racemic) was run?
Answer: 7.89

Question: Cn1c(N2CCN[C@H](c3ccc(Cl)cc3)C2)nc(-c2ccncc2)cc1=O was tested. Which pIC50 [1] did it give?
Answer: 6.96

Question: COc1ccccc1C1CN(c2nc(-c3ccncn3)cc(=O)n2C)CCN1 (stereo unspecified) was tested. Which pIC50 [1] did it give?
Answer: 8.74

Question: How did the pIC50 [1] turn out when Cn1c(N2CCNC(c3ccc(Cl)c(Cl)c3)C2)nc(-c2ccncc2)cc1=O (stereo unspecified) was run?
Answer: 8.37

Question: What does the source list for COc1cc(F)ccc1C1CN(c2nc(-c3ccncn3)cc(=O)n2C)CCN1 (single isomer, unassigned; Enantiomer-1)?
Answer: pIC50 [4]: < 4.30; pIC50 [2]: < 4.28; pIC50 [3]: 5.47; pIC50 [1]: 7.36

Question: How did the pIC50 [1] turn out when Cn1c(N2CCN[C@@H](c3ccc(Cl)cc3)C2)nc(-c2ccncc2)cc1=O was run?
Answer: 7.96

Question: What does the source list for COc1cc(F)ccc1C1CN(c2nc(-c3ccncn3)cc(=O)n2C)CCN1 (single isomer, unassigned; enantiomer 2)?
Answer: pIC50 [2]: < 4.28; pIC50 [3]: 5.04; pIC50 [1]: 9.60

Question: With Cn1c(N2CCNC(c3ccc(F)cc3)C2)nc(-c2ccncn2)cc1=O (racemic) as the molecule, how does the pIC50 [1] read?
Answer: 8.07

Question: With Cn1c(N2CCNC(c3ccccc3F)C2)nc(-c2ccncc2)cc1=O (stereo unspecified) as the molecule, how does the pIC50 [1] read?
Answer: 7.96

Question: How did the pIC50 [5] turn out when COc1ccc(C2CN(c3nc(-c4ccncc4)cc(=O)n3C)CCN2)cc1 (racemic) was run?
Answer: 4.35

Question: What about the pIC50 [6] of the same molecule?
Answer: < 4.28

Question: What about the pIC50 [2] of the same molecule?
Answer: < 4.28

Question: What about the pIC50 [1] of the same molecule?
Answer: 8.33

Question: How did the pIC50 [1] turn out when Cn1c(N2CCNC(c3cccc(Br)c3)C2)nc(-c2ccncn2)cc1=O (racemic) was run?
Answer: 8.70

Question: How did the pIC50 [1] turn out when COc1ccc(C2CN(c3nc(-c4ccncn4)cc(=O)n3C)CCN2)cc1OC (stereo unspecified) was run?
Answer: 8.11

Question: COc1ccccc1C1CN(c2nc(-c3ccncc3)cc(=O)n2C)CCN1 (racemic) was tested. Which pIC50 [4] did it give?
Answer: < 4.30

Question: And the pIC50 [7]?
Answer: < 4.30

Question: And the pIC50 [3]?
Answer: > 6.70

Question: And the pIC50 [1]?
Answer: 8.74

Question: How did the pIC50 [1] turn out when CCOc1ccccc1C1CN(c2nc(-c3ccncn3)cc(=O)n2C)CCN1 (stereo unspecified) was run?
Answer: 7.70

Question: With Cn1c(N2CCNC(c3cccc(Cl)c3)C2)nc(-c2ccncc2)cc1=O (racemic) as the molecule, how does the pIC50 [1] read?
Answer: 8.27

Question: COc1cccc(C2CN(c3nc(-c4ccncc4)cc(=O)n3C)CCN2)c1 (racemic) was tested. Which pIC50 [4] did it give?
Answer: < 4.30

Question: And the pIC50 [7]?
Answer: < 4.30

Question: And the pIC50 [3]?
Answer: 6.40

Question: What about the pIC50 [1] of the same molecule?
Answer: 7.96
